Source: the supplement of paper PMC10307832

Tests used:
Assay in all cases: relative viability (nuclei count vs DMSO), 5 days (fraction); higher = more cells survive
NCI-H1563 = test system: NCI-H1563
In short: (§1)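 Medians of duplicate plates are given as relative viability. That measure is the nuclei count in treated wells divided by the count in vehicle wells. Counts were taken on 4× images of lung cancer cell lines in 1536-well plates, 5 days after pin-tool dosing the day after seeding with one drug alone or a fixed anchor-drug dose plus five library-drug doses (not always all listed) in √10 steps.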

NCI-H522 = test system: NCI-H522
In short: as §1

A549 = test system: A549
In short: as §1

NCI-H2342 = test system: NCI-H2342
In short: as §1

SW 900 = test system: SW 900
In short: as §1

NCI-H1623 = test system: NCI-H1623
In short: as §1

NCI-H1703 = test system: NCI-H1703
In short: as §1

NCI-H1648 = test system: NCI-H1648
In short: as §1

EBC-1 = test system: EBC-1
In short: as §1

NCI-H1299 = test system: NCI-H1299
In short: as §1

IA-LM = test system: IA-LM
In short: as §1

Calu-6 = test system: Calu-6
In short: as §1

For `O=c1[nH]c2ccccc2n1C1CCN(CCCC(c2ccc(F)cc2)c2ccc(F)cc2)CC1` [Pimozide] + N=C(N)NC(=N)NCCc1ccccc1 [Phenformin] (partner 250 µM), which relative viability (NCI-H1563; first compound 0.08 µM) is on record?
Its relative viability is 0.721.

What about the relative viability (NCI-H1563; first compound 0.253 µM) of the same compound?
The relative viability was 0.771.

And the relative viability (NCI-H1563; first compound 0.8 µM)?
The relative viability was 0.668.

What about the relative viability (NCI-H1563; first compound 2.53 µM) of the same compound?
The relative viability was 0.663.

What about the relative viability (NCI-H1563; first compound 8 µM) of the same compound?
The relative viability was 0.64.

And the relative viability (NCI-H522; first compound 0.08 µM)?
Its relative viability is 0.569.

And the relative viability (NCI-H522; first compound 0.253 µM)?
The relative viability was 0.655.

And the relative viability (NCI-H522; first compound 0.8 µM)?
The relative viability was 0.628.

And the relative viability (NCI-H522; first compound 2.53 µM)?
Its relative viability is 0.804.

What about the relative viability (NCI-H522; first compound 8 µM) of the same compound?
Its relative viability is 0.671.

And the relative viability (A549; first compound 0.08 µM)?
The relative viability was 0.154.

And the relative viability (A549; first compound 0.253 µM)?
The relative viability was 0.171.

What about the relative viability (A549; first compound 0.8 µM) of the same compound?
The relative viability was 0.152.

What about the relative viability (A549; first compound 2.53 µM) of the same compound?
Its relative viability is 0.156.

And the relative viability (A549; first compound 8 µM)?
Its relative viability is 0.173.

And the relative viability (NCI-H2342; first compound 0.08 µM)?
The relative viability was 0.655.

And the relative viability (NCI-H2342; first compound 0.253 µM)?
The relative viability was 0.543.

And the relative viability (NCI-H2342; first compound 0.8 µM)?
Its relative viability is 0.555.

And the relative viability (NCI-H2342; first compound 2.53 µM)?
Its relative viability is 0.536.

And the relative viability (NCI-H2342; first compound 8 µM)?
Its relative viability is 0.639.

What about the relative viability (SW 900; first compound 0.08 µM) of the same compound?
The relative viability was 0.574.

What about the relative viability (SW 900; first compound 0.253 µM) of the same compound?
The relative viability was 0.685.

What about the relative viability (SW 900; first compound 0.8 µM) of the same compound?
The relative viability was 0.375.

And the relative viability (SW 900; first compound 2.53 µM)?
Its relative viability is 0.552.

What about the relative viability (SW 900; first compound 8 µM) of the same compound?
The relative viability was 0.516.

And the relative viability (NCI-H1623; first compound 0.253 µM)?
The relative viability was 0.575.

And the relative viability (NCI-H1623; first compound 0.8 µM)?
The relative viability was 0.57.

And the relative viability (NCI-H1623; first compound 2.53 µM)?
The relative viability was 0.617.

And the relative viability (NCI-H1623; first compound 8 µM)?
Its relative viability is 0.629.

With `O=c1[nH]c2ccccc2n1C1CCN(CCCC(c2ccc(F)cc2)c2ccc(F)cc2)CC1` [Pimozide] + NC(=O)Nc1cc(-c2cccc(F)c2)sc1C(=O)N[C@H]1CCCNC1 [AZD7762] (partner 0.2 µM) as the compound, how does the relative viability (NCI-H1703; first compound 0.08 µM) read?
The relative viability was 0.129.

What about the relative viability (NCI-H1703; first compound 0.253 µM) of the same compound?
Its relative viability is 0.109.

And the relative viability (NCI-H1703; first compound 0.8 µM)?
Its relative viability is 0.0889.

And the relative viability (NCI-H1703; first compound 2.53 µM)?
The relative viability was 0.1.

And the relative viability (NCI-H1703; first compound 8 µM)?
The relative viability was 0.122.

And the relative viability (NCI-H522; first compound 0.08 µM)?
The relative viability was 0.963.

And the relative viability (NCI-H522; first compound 0.253 µM)?
Its relative viability is 0.835.

What about the relative viability (NCI-H522; first compound 0.8 µM) of the same compound?
The relative viability was 0.857.

And the relative viability (NCI-H522; first compound 2.53 µM)?
The relative viability was 0.77.

And the relative viability (NCI-H522; first compound 8 µM)?
Its relative viability is 0.872.

What about the relative viability (NCI-H1648; first compound 0.08 µM) of the same compound?
The relative viability was 0.568.

What about the relative viability (NCI-H1648; first compound 0.8 µM) of the same compound?
Its relative viability is 0.52.

And the relative viability (NCI-H1648; first compound 2.53 µM)?
Its relative viability is 0.584.

And the relative viability (NCI-H1648; first compound 8 µM)?
The relative viability was 0.698.

What about the relative viability (NCI-H2342; first compound 0.08 µM) of the same compound?
Its relative viability is 0.524.

What about the relative viability (NCI-H2342; first compound 0.253 µM) of the same compound?
The relative viability was 0.526.

What about the relative viability (NCI-H2342; first compound 0.8 µM) of the same compound?
The relative viability was 0.465.

What about the relative viability (NCI-H2342; first compound 2.53 µM) of the same compound?
The relative viability was 0.48.

And the relative viability (NCI-H2342; first compound 8 µM)?
Its relative viability is 0.492.

And the relative viability (SW 900; first compound 0.08 µM)?
The relative viability was 0.524.

What about the relative viability (SW 900; first compound 0.253 µM) of the same compound?
The relative viability was 0.599.

What about the relative viability (SW 900; first compound 2.53 µM) of the same compound?
Its relative viability is 0.591.

And the relative viability (SW 900; first compound 8 µM)?
Its relative viability is 0.478.

Which results are given for `O=c1[nH]c2ccccc2n1C1CCN(CCCC(c2ccc(F)cc2)c2ccc(F)cc2)CC1` [Pimozide] + O=C(c1cc(Cc2n[nH]c(=O)c3ccccc23)ccc1F)N1CCN(C(=O)C2CC2)CC1 [Olaparib] (partner 8 µM)?
relative viability (NCI-H1703; first compound 0.08 µM): 0.352; relative viability (NCI-H1703; first compound 0.253 µM): 0.324; relative viability (NCI-H1703; first compound 0.8 µM): 0.374; relative viability (NCI-H1703; first compound 2.53 µM): 0.439; relative viability (NCI-H1703; first compound 8 µM): 0.341; relative viability (EBC-1; first compound 0.08 µM): 0.651; relative viability (EBC-1; first compound 0.253 µM): 0.695; relative viability (EBC-1; first compound 0.8 µM): 0.723; relative viability (EBC-1; first compound 2.53 µM): 0.626; relative viability (EBC-1; first compound 8 µM): 0.676; relative viability (NCI-H522; first compound 0.08 µM): 0.569; relative viability (NCI-H522; first compound 0.253 µM): 0.54; relative viability (NCI-H522; first compound 0.8 µM): 0.751; relative viability (NCI-H522; first compound 2.53 µM): 0.592; relative viability (NCI-H522; first compound 8 µM): 0.72; relative viability (A549; first compound 0.08 µM): 0.237; relative viability (A549; first compound 0.253 µM): 0.319; relative viability (A549; first compound 0.8 µM): 0.271; relative viability (A549; first compound 2.53 µM): 0.34; relative viability (A549; first compound 8 µM): 0.347; relative viability (NCI-H1299; first compound 0.08 µM): 0.983; relative viability (NCI-H1299; first compound 0.253 µM): 0.973; relative viability (NCI-H1299; first compound 0.8 µM): 0.931; relative viability (NCI-H1299; first compound 2.53 µM): 0.948; relative viability (NCI-H1299; first compound 8 µM): 0.898; relative viability (NCI-H1648; first compound 0.08 µM): 0.805; relative viability (NCI-H1648; first compound 0.8 µM): 0.522; relative viability (NCI-H1648; first compound 2.53 µM): 0.619; relative viability (NCI-H1648; first compound 8 µM): 1.1; relative viability (NCI-H2342; first compound 0.08 µM): 0.438; relative viability (NCI-H2342; first compound 0.253 µM): 0.355; relative viability (NCI-H2342; first compound 0.8 µM): 0.397; relative viability (NCI-H2342; first compound 2.53 µM): 0.403; relative viability (NCI-H2342; first compound 8 µM): 0.411; relative viability (IA-LM; first compound 0.08 µM): 0.84; relative viability (IA-LM; first compound 0.253 µM): 0.737; relative viability (IA-LM; first compound 0.8 µM): 0.873; relative viability (IA-LM; first compound 2.53 µM): 0.82; relative viability (IA-LM; first compound 8 µM): 0.812; relative viability (SW 900; first compound 0.08 µM): 0.955; relative viability (SW 900; first compound 0.253 µM): 0.893; relative viability (SW 900; first compound 2.53 µM): 0.839; relative viability (SW 900; first compound 8 µM): 0.892; relative viability (Calu-6; first compound 0.08 µM): 0.651; relative viability (Calu-6; first compound 0.253 µM): 0.568; relative viability (Calu-6; first compound 0.8 µM): 0.597; relative viability (Calu-6; first compound 2.53 µM): 0.575; relative viability (Calu-6; first compound 8 µM): 0.425
